# Laboratory results from patent US20030148963A1 (priority 2000, published 2003).
# Read-outs that look alike come from different tables or passages of the source. Marks after values point to notes of the source that are not given here.
# Assays:
# [1] = system: T cell mediated DTH reaction; assay: Delayed type hypersensitivity to oxazolone (ear swelling); assay type: in vivo, mice; conditions: 12.5 mg/kg two days, the day before and 1 h before challenge; 24 h; similar to controls
# [2] = system: IL-6; assay: IL-6 release by IC-21 macrophage cell line; assay type: cell-based, murine
# Description: (§1) These cells display many typical features of the macrophage phenotype and are therefore a suitable model for studying cytoline and chemokine release during inflammation (16). The cells were maintained in continous culture using RPMI-1640 supplemented with 10% FCS, L-glutamine, and gentamycin. When the cells had grown to about 70% confluency, they were seeded into a 24-well-plate (Nunc) at a concentration of 1×10^5 per well and incubated at 37° C. in 5% CO2 for 24 h. […] After 24 h of incubation, the cells were washed once with PBS, and reincubated with medium containing different concentrations (1, 10, 100, 1000 ng/ml) of LPS (Difco) and IFN-γ (10, 50, 100 u/nml). The interferon-γ was purified from the supernatants from Chinese hanater ovary (CHO) cells transfected with the murine IFN-γ gene (hybridoma kindly provided by Dr. Morris, Department of Biological Sciences, University of Warwick, Coventry, UK). After 2 and 24 h of incubation the supernatants were collected and stored at −20° C. until analysis.
# [3] = system: IC-21 cells; assay: Viability and cell number of IC-21 cells; assay type: cell-based, murine; conditions: IC-21, etoposide-containing medium at concentrations 0.1 and 0.01 mM (so in the source); preliminary experiments, data not shown
# Description: as §1, with “h. After 24 h the medium was changed into etoposide-containing medium at concentrations 0.1 and 0.01 mM.” for “h.”
# [4] = system: draining lymph node cells; assay: Draining lymph node response after CII immunization; assay type: in vivo, mice
# [5] = system: peripheral leukocytes; assay: Peripheral blood cell count in naive mice; assay type: in vivo; conditions: 12.5 mg/kg 4 days per week for 4 weeks, 3 days after last treatment
# Description: Mice were bled from the tail into heparinized tubes at different time-points. The leukocytes were counted in a hemacytometer (Toa Medical Electronics, Kobe, Japan). Fifty microliters of the heparinized blood was analyzed in a FACScan cytometer (Becton Dickinson, San Jose, Calif.) to determine the percentages of lymphocytes, granulocytes, and monocytes. The absolute numbers of different leukocyte subsets were then calculated from the total leukocyte counts.
# [6] = system: MIP-1α; assay: MIP-1α release by IC-21 macrophage cell line; assay type: cell-based, murine
# Description: Levels of TNF, IL-1b, RANTES, and macrophage inflammatory protein (MIP)-1α were determined using sandwich ELISA from R&D Systems (Minneapolis, Minn.).
# as §1
# [7] = system: IL-6; assay: Serum IL-6 in CII immunized mice (B9 bioassay); assay type: in vivo, B10.QxDBA/1 female mice; conditions: serum at end of experiment, mean ± SEM
# Description: For quantification of serfu CII antibodies, 96-well plates (Nunc, Roskilde, Denmark) were coated overnight at 4° C. with 10 μg/ml of native CII. Standards and samples were diluted in 0.5% BSA-PBS. Biotinylated F(ab/)2 fragments of goat anti-mouse IgG (Jackson ImmunoResearch Laboratories, West Grove, Pa.) was used as secondary antibody. Development was performed using horseradish peroxidase 0.5 μg/ml and 2.5 mg of the enzyme substrate 2,2-azino-bis-(3-ethylbenzothiazoline sulfonic acid) (Sigma) per mal in citrate buffer (pH 4.2), containing 0.0075% H2O2. The absorbance was measured at 405 nm in a SPECTRAmax spectrophotometer (Molecular Devices, Calif.). IFN-γ levels in sera were quantified with an ELISA system previously described (13). Ninety-six well plates (Nunc) were coated with 2 μg/ml of rat anti-mouse IFN-γ mab (Pharmingen, San Diego, Calif.). Sera, recombinant IFN-γ (Genzyme, Cambridge, Mass.), biotinylated antibodies were all diluted in 0.05 M Tris pH 7.4+0.015 M NaCl. A biotinylated anti mouse IFN-γ antibody (2 μg/ml) (Pharmigen) was used as secondary antibody. After incubation with extravidin alkaline phosphatase 0.5 ?g/ml and alkaline phosphatase substrate 1 mg/ml (Sigma) the absorbance was measured at 405 nm. Interleukin 6 (IL-6) levels in serum and supernatants were measured by a bioassay using cell line B13.29, subclone B9, which is dependent on IL-6 for growth. […]
# [8] = system: TNF; assay type: cell-based, NMRI mice; conditions: spleen cells from non-infected in vivo etoposide-treated mice; mean ± SEM, four mice
# [9] = system: IL-6; assay type: cell-based, NMRI mice; conditions: 24 h supernatant
# [10] = etoposide 1 μM, mean ± SEM, four mice
smiles,measurement,setting,value
COc1cc([C@@H]2c3cc4c(cc3[C@@H](O[C@@H]3O[C@@H]5CO[C@@H](C)O[C@H]5[C@H](O)[C@H]3O)[C@H]3COC(=O)[C@H]23)OCO4)cc(OC)c1O [Etoposide],DTH reaction to oxazolone (ear thickness increase),[1],32±6 ×10^−3 cm
same,Levels of IL-6 in supernatants,"[2]; IC-21, stimulated with IFN-γ, levels very low, FIG. 6B",seemed to be upregulated
same,Levels of IL-6 in supernatants,"[2]; IC-21, stimulation by LPS, FIG. 6A",downregulated
same,Cell viability or total cell numbers,[3],not to influence the cell viability or total cell numbers
same,"Numbers of B cells, T cells, macrophages and germinal centers in inguinal lymph nodes","[4]; 10 days after CII immunization, immunohistochemical stainings",no significant effects on numbers
same,Antibodies to CII in lymph node cell cultures,"[4]; lymph node cells challenged in vitro with CII, vs PBS controls",not produced at all
same,"T cell functions (proliferation, IFN-γ secretion) of lymph node cells","[4]; lymph node cells challenged in vitro with CII, data not shown",no difference in T cell functions
same,Numbers of granulocytes,[5],1.1±0.4 ×10^4/ml
same,Numbers of monocytes,[5],71±28 ×10^4/ml
same,Levels of MIP-1α in supernatants,"[6]; etoposide 0.01 μM 24 h, then IFN-γ 0 u/ml 24 h",5700 pg/mL
same,Levels of MIP-1α in supernatants,"[6]; etoposide 0.01 μM 24 h, then IFN-γ 10 u/ml 24 h",4200 pg/mL
same,Levels of MIP-1α in supernatants,"[6]; etoposide 0.01 μM 24 h, then IFN-γ 50 u/ml 24 h",1075 pg/mL
same,Levels of MIP-1α in supernatants,"[6]; etoposide 0.01 μM 24 h, then IFN-γ 100 u/ml 24 h",800 pg/mL
same,Levels of MIP-1α in supernatants,"[6]; etoposide 0.1 μM 24 h, then IFN-γ 0 u/ml 24 h",3400 pg/mL
same,Levels of MIP-1α in supernatants,"[6]; etoposide 0.1 μM 24 h, then IFN-γ 10 u/ml 24 h",1950 pg/mL
same,Levels of MIP-1α in supernatants,"[6]; etoposide 0.1 μM 24 h, then IFN-γ 50 u/ml 24 h",900 pg/mL
same,Levels of MIP-1α in supernatants,"[6]; etoposide 0.1 μM 24 h, then IFN-γ 100 u/ml 24 h",488 pg/mL
same,IL-6,[7]; Etoposide-pretreated,117 ± 21a pg/ml
same,IL-6,[7]; Etoposide-treated (from day 40),179 ± 21^b pg/ml
same,"TNF, ConA stimulated",[8],138 ± 17 pg/mL
same,"TNF, TSST-1 stimulated",[8],77 ± 22 pg/mL
same,"IL-6, ConA stimulated",[9]; [10],825 ± 455 pg/mL
same,"IL-6, TSST-1 stimulated",[9]; [10],45 ± 16b pg/ml
same,"IL-6, ConA stimulated",[9]; etoposide 10 μM,<10^b pg/ml
same,"IL-6, TSST-1 stimulated",[9]; etoposide 10 μM,<10^b pg/ml
same,"IL-6, ConA stimulated",[9]; etoposide 100 μM,<10^b pg/ml
same,"IL-6, TSST-1 stimulated",[9]; etoposide 100 μM,<10^b pg/ml
